Patent EP3355943B1, “METHODS AND SYSTEMS FOR TREATING MEDICAL DEVICES AND FLUIDS” (Ethicon, Inc., priority 2015, dated 2017)
Where “and” joins values, the source holds several entries; their conditions need not be identical. Equal entries are not always repeated.

Key:
Type in all cases: biochemical
[1] = Kinetics of removal of LPS with different agitation techniques in presence of stearate salts; details: for Endotoxin Detected (EU): 5mL SRW, baseline 1,502; for Percent (%) Removed: vs SRW Baseline
Procedure: 5mL of SRW was added to each of the tubes. Each solution was tested for endotoxin removal after agitation based on with sonication, vortexing, or test tube rolling. Sonication samples were sonicated at each indicated time interval for 30 seconds at a magnitude of 30. Vortex samples were vortexed at each indicated time interval for 30 seconds at 2500 RPM. Rolling samples were constantly rolling at 10 rpm. The samples were tested on the MCS for endotoxin at 1 minute, 20 minutes, 40 minutes, 60 minutes, and 80 minutes.

[2] = Detection of LPS after adding CaSt powder to water spiked with LPS (Kinetic Chromogenic Method for Endotoxin Quantitation)
Procedure: Water and aqueous solutions (containing LPS with various sources of endotoxin) were exposed to calcium stearate [CaSt] […] 5 mL of water solution of known endotoxin concentration (generated by spiking endotoxin-free water with water solution of known endotoxin concentration) was added to the each test tube, vortexed vigorously (1 minute) using Fisher Scientific Digital Vortex Mixer, and then placed in a warm water bath (37°C) for 1 hour. After 1 hour, the tubes were removed from warm water bath and vortexed vigorously (1 minute). Sterile syringes with needles were used to extract the solution without removing the calcium stearate. This solution was then tested for endotoxin levels. Kinetic Chromogenic Method for Endotoxin Quantitation, using Endosafe MCS Multi Cartridge System by Charles River Laboratories, Charleston S.C.

[3] = Wound dressing (fibrin pad) spiked with LPS, treated in cyclohexane containing CaSt; details: Tube 2: 10 mL cyclohexane with 0.1 g CaSt, 15 minutes rolling; for Endotoxin detected on Pad (EU): pad spiked 8.9 EU
Procedure: A wound dressing containing dry fibrinogen and dry thrombin on an absorbable support was tested as follows. The pad was spiked with LPS and then exposed to cyclohexane containing CaSt to determine the effect on detectable LPS.
Three 1x2 inch pieces of the dressing were spiked with endotoxin resulting in 8.9 EU of LPS. The pieces were allowed to dry for 20 minutes, then placed into 50 mL polypropylene conical tubes. 7.5 mL of LAL reagent water +2.5 mL 0.25M tris buffer was added to Tube 1. 10 mL of cyclohexane with 0.1 g of CaSt was added to Tube 2. 10 mL of cyclohexane was added to Tube 3. The tubes were closed and then placed on the bottle roller rotator machine for 15 minutes so that the tube could continuously roll and the dressing was constantly in contact with liquid.
Tube 1 solution was then diluted and tested for endotoxin on the MCS system. The fibrin pad pieces from Tube 2 and Tube 3 were removed and placed in new tubes and extracted in 7.5 mL of LAL reagent water + 2.5 mL 0.25M tris buffer. The solutions were then tested on the MCS system for endotoxin (LPS). Table 9. Results of testing of dressing in cyclohexane containing CaSt

[4] = Suture testing in ethanol, cyclohexane, isopropanol with 1% calcium stearate; details: for Change in Endotoxin Level (%): vs. Suture-1 not submerged (68.1 EU)
Procedure: Similarly to the testing above, an absorbable suture of the same type, similarly contaminated, was exposed to CaSt in three solvents (ethanol, cyclohexane, isopropanol). The suture was then tested for LPS.
Sutures used were 27 inch long pieces of absorbable lactide-glycolide sutures. […] 7 strands of suture were placed in tubing with endotoxin solution for 10 minutes at a time. The sutures were dried for 20 minutes and then placed in round bottom tubes. […] 1 suture was placed in each tube and vortexed in this solution for approximately 10 seconds. The sutures were removed and allowed to dry for 20 minutes and then placed in round bottom tubes. This was done for 6 sutures. 1 piece of suture, serving as the control, was not submerged in any solutions and placed in test tubes. 3 mL of LAL reagent water was added to each test tube, vortexed vigorously, and then placed in a hot water bath at 37°C for 1 hour. They were then removed, vortexed vigorously, diluted, and tested on the MCS system. […] Results of testing in ethanol, cyclohexane, isopropanol

[5] = 0.0027 g CaSt in 5 ml water, 14,400 EU spiked
[6] = 0.0108 g CaSt in 5 ml water, 14,400 EU spiked
[7] = 0.0518 g CaSt in 5 ml water, 14,400 EU spiked
[8] = 0.2502 g CaSt in 5 ml water, 14,400 EU spiked
[9] = CaSt powder 0.254 g (sample 1), 0.2607 g (sample 2) in 5 ml water, 14,400 EU spiked, 0.254 g CaSt powder added
[10] = CaSt powder 0.254 g (sample 1), 0.2607 g (sample 2) in 5 ml water, 14,400 EU spiked, 0.2607 g CaSt powder added
[11] = suture submerged in Cyclohexane w/1% Calcium Stearate (0.0858 g)
[12] = suture submerged in Ethanol w/1% Calcium Stearate (0.0827 g)
[13] = suture submerged in Isopropanol w/1% Calcium Stearate (0.0841 g)

CCCCCCCCCCCCCCCCCC(=O)O [Calcium Stearate]
removal of LPS (in words), comparison of salts of stearic acid ([1]; CaSt vs. other salt forms): more efficacious in removal of LPS
Endotoxin Detected (EU) ([1]; Rolling, 1 minute): 1,230 EU
Percent (%) Removed ([1]; Rolling, 1 minute): 18.1%
Endotoxin Detected (EU) ([1]; Rolling, 20 minutes): 1,050 EU
Percent (%) Removed ([1]; Rolling, 20 minutes): 30.1%
Endotoxin Detected (EU) ([1]; Rolling, 40 minutes): 630 EU
Percent (%) Removed ([1]; Rolling, 40 minutes): 58.1%
Endotoxin Detected (EU) ([1]; Rolling, 60 minutes): 637 EU
Percent (%) Removed ([1]; Rolling, 60 minutes): 57.6%
Endotoxin Detected (EU) ([1]; Rolling, 80 minutes): 451 EU
Percent (%) Removed ([1]; Rolling, 80 minutes): 70%
Endotoxin Detected (EU) ([1]; Sonication, 1 minute): 270 EU
Percent (%) Removed ([1]; Sonication, 1 minute): 82%
Endotoxin Detected (EU) ([1]; Sonication, 20 minutes): 130 EU
Percent (%) Removed ([1]; Sonication, 20 minutes): 91.3%
Endotoxin Detected (EU) ([1]; Sonication, 40 minutes): 87.5 EU
Percent (%) Removed ([1]; Sonication, 40 minutes): 94.2%
Endotoxin Detected (EU) ([1]; Sonication, 60 minutes): 56.9 EU
Percent (%) Removed ([1]; Sonication, 60 minutes): 96.2%
Endotoxin Detected (EU) ([1]; Sonication, 80 minutes): 16.4 EU
Percent (%) Removed ([1]; Sonication, 80 minutes): 98.9%
Endotoxin Detected (EU) ([1]; Vortexing, 1 minute): 451 EU
Percent (%) Removed ([1]; Vortexing, 1 minute): 70%
Endotoxin Detected (EU) ([1]; Vortexing, 20 minutes): 301 EU
Percent (%) Removed ([1]; Vortexing, 20 minutes): 80%
Endotoxin Detected (EU) ([1]; Vortexing, 40 minutes): 139 EU
Percent (%) Removed ([1]; Vortexing, 40 minutes): 90.7%
Endotoxin Detected (EU) ([1]; Vortexing, 60 minutes): 173 EU
Percent (%) Removed ([1]; Vortexing, 60 minutes): 88.5%
Percent (%) Removed ([1]; Vortexing, 80 minutes): 93.1%
Endotoxin Detected (EU) [2, 5]: 11,055 EU
Percent of detected Endotoxin vs. initial concentration [2, 5]: 77% and 76.77%
Endotoxin Detected (EU) [2, 6]: 2,925 EU
Percent of detected Endotoxin vs. initial concentration [2, 6]: 20% and 20.31%
Endotoxin Detected (EU) [2, 7]: 9.4 EU
Percent of detected Endotoxin vs. initial concentration [2, 7]: 0.07%
Endotoxin Detected (EU) [2, 8]: 26.7 EU
Percent of detected Endotoxin vs. initial concentration [2, 8]: 0.19%
Percent of detected Endotoxin vs. initial concentration ([2]; CaSt powder 0.252/0.258/0.272/0.267 g (samples 1-4) in 5 ml water, 5.208 EU spiked, 37°C 1 hour, 0.252 g CaSt powder added): <2.88%
Percent of detected Endotoxin vs. initial concentration ([2]; CaSt powder 0.252/0.258/0.272/0.267 g (samples 1-4) in 5 ml water, 5.208 EU spiked, 37°C 1 hour, 0.258 g CaSt powder added): <8.06%
Percent of detected Endotoxin vs. initial concentration ([2]; CaSt powder 0.252/0.258/0.272/0.267 g (samples 1-4) in 5 ml water, 5.208 EU spiked, 37°C 1 hour, 0.267 g CaSt powder added): <3.46%
Endotoxin Detected (EU) [2, 9]: 12.1 EU
Percent of detected Endotoxin vs. initial concentration [2, 9]: 0.08%
Endotoxin Detected (EU) [2, 10]: 10.3 EU
Percent of detected Endotoxin vs. initial concentration [2, 10]: 0.07%
Percent Endotoxin detected as compared to Tube 1 ([3]; Tube 1 = no cyclohexane, 8.9 EU): 20.2%
Endotoxin detected on Pad (EU) [3]: 1.8 EU
Endotoxin detected on Pad (EU) ([3]; listed as CaSt): 2 EU
LPS activity decreased by ([4]; CaSt 1% suspension in ethanol, cyclohexane, isopropanol): 75-95%
Endotoxin Detected (EU) [4, 11]: 4.02 EU
Change in Endotoxin Level (%) [4, 11]: -94.1%
Endotoxin Detected (EU) [4, 12]: 15.06 EU
Change in Endotoxin Level (%) [4, 12]: -77.9%
Endotoxin Detected (EU) [4, 13]: 16.59 EU
Change in Endotoxin Level (%) [4, 13]: -75.6%
